Results reported in ChEMBL document CHEMBL4507261, “Data for DCP probe A-192621” (2021).

Experiments:
[1] = target: Ribosomal protein S6 kinase alpha-2 (Homo sapiens) (UniProt Q15349); details: Compound concentration 1000.0 nM
[2] = tested on: Receptor-type tyrosine-protein kinase FLT3 (Homo sapiens), P36888 [N841I]; details: Compound concentration 1000.0 nM
[3] = target: Tyrosine-protein kinase FRK (Homo sapiens) (UniProt P42685); details: Compound concentration 1000.0 nM
[4] = target: Fibroblast growth factor receptor 4 (Homo sapiens) (UniProt P22455); details: Compound concentration 1000.0 nM
[5] = target: Calcium/calmodulin-dependent protein kinase type II subunit delta (Homo sapiens) (UniProt Q13557); details: Compound concentration 1000.0 nM
[6] = target: Tyrosine-protein kinase SYK (Homo sapiens) (UniProt P43405); details: Compound concentration 1000.0 nM
[7] = target: Mitogen-activated protein kinase kinase kinase 12 (Homo sapiens) (UniProt Q12852); details: Compound concentration 1000.0 nM
[8] = target: Mitogen-activated protein kinase 12 (Homo sapiens) (UniProt P53778); details: Compound concentration 1000.0 nM
[9] = target: Neuropeptide Y receptor type 1 (Homo sapiens) (UniProt P25929); assay: Y1 (h) Eurofins-Cerep binding assay; set-up: ligand concentration 0.025 nM; details: filed as agonist, Compound concentration 10.0 uM
[10] = target: 5-hydroxytryptamine receptor 7 (Homo sapiens) (UniProt P34969); assay: 5-HT7 (h) Eurofins-Cerep binding assay; set-up: ligand concentration 4 nM; details: filed as agonist, Compound concentration 10.0 uM
[11] = target: Ephrin type-A receptor 3 (Homo sapiens) (UniProt P29320); details: Compound concentration 1000.0 nM
[12] = target: Serine/threonine-protein kinase RIO3 (Homo sapiens) (UniProt O14730); details: Compound concentration 1000.0 nM
[13] = target: Substance-P receptor (Homo sapiens) (UniProt P25103); assay: NK1 (h) Eurofins-Cerep binding assay; set-up: ligand concentration 0.05 nM; details: filed as agonist, Compound concentration 10.0 uM
[14] = target: Microtubule-associated serine/threonine-protein kinase 1 (Homo sapiens) (UniProt Q9Y2H9); details: Compound concentration 1000.0 nM
[15] = target: Vasopressin V1a receptor (Homo sapiens) (UniProt P37288); assay: V1 a (h) Eurofins-Cerep binding assay; set-up: ligand concentration 0.3 nM; details: filed as agonist, Compound concentration 10.0 uM
[16] = target: Fibroblast growth factor receptor 3 (Homo sapiens) (UniProt P22607); details: Compound concentration 1000.0 nM
[17] = target: Misshapen-like kinase 1 (Homo sapiens) (UniProt Q8N4C8); details: Compound concentration 1000.0 nM
[18] = tested on: Tyrosine-protein kinase ABL1 (Homo sapiens), P00519 [Q252H]; details: Compound concentration 1000.0 nM
[19] = target: Serine/threonine-protein kinase WNK2 (Homo sapiens) (UniProt Q9Y3S1); details: Compound concentration 1000.0 nM
[20] = target: Cyclin-dependent kinase 4 (Homo sapiens) (UniProt P11802); details: Compound concentration 1000.0 nM
[21] = target: voltage-gated L-type Ca2+ channel (dihydropyridine site) (Rattus norvegicus, UniProt P22002+P27732+Q02485); assay: Ca2+ channel (L, dihydropyridine site) Eurofins-Cerep binding assay; set-up: incubation time 90 min, incubation temperature RT, ligand concentration 0.1 nM; details: rat cerebral cortex (source of protein), probe [3H]nitrendipine (0.1 nM), compound concentration 10 uM, read-out: % Inhibition of Control Specific Binding (Mean n=2)
[22] = target: Leukocyte tyrosine kinase receptor (Homo sapiens) (UniProt P29376); details: Compound concentration 1000.0 nM
[23] = target: Serine/threonine-protein kinase OSR1 (Homo sapiens) (UniProt O95747); details: Compound concentration 1000.0 nM
[24] = target: Leucine-rich repeat serine/threonine-protein kinase 2 (Homo sapiens) (UniProt Q5S007); details: Compound concentration 1000.0 nM
[25] = target: Non-receptor tyrosine-protein kinase TYK2 (Homo sapiens) (UniProt P29597); details: Compound concentration 1000.0 nM
[26] = target: Casein kinase I isoform gamma-3 (Homo sapiens) (UniProt Q9Y6M4); details: Compound concentration 1000.0 nM
[27] = tested on: Epidermal growth factor receptor (Homo sapiens), P00533 [T790M]; details: Compound concentration 1000.0 nM
[28] = target: Serine/threonine-protein kinase PAK 2 (Homo sapiens) (UniProt Q13177); details: Compound concentration 1000.0 nM
[29] = target: 3-phosphoinositide-dependent protein kinase 1 (Homo sapiens) (UniProt O15530); details: Compound concentration 1000.0 nM
[30] = target: Transient receptor potential cation channel subfamily M member 6 (Homo sapiens) (UniProt Q9BX84); details: Compound concentration 1000.0 nM
[31] = target: Receptor tyrosine-protein kinase erbB-4 (Homo sapiens) (UniProt Q15303); details: Compound concentration 1000.0 nM
[32] = target: Cyclin-dependent kinase 9 (Homo sapiens) (UniProt P50750); details: Compound concentration 1000.0 nM
[33] = target: Mitogen-activated protein kinase 11 (Homo sapiens) (UniProt Q15759); details: Compound concentration 1000.0 nM
[34] = tested on: Proto-oncogene tyrosine-protein kinase receptor Ret (Homo sapiens), P07949 [M918T]; details: Compound concentration 1000.0 nM
[35] = target: LIM domain kinase 2 (Homo sapiens) (UniProt P53671); details: Compound concentration 1000.0 nM
[36] = target: NUAK family SNF1-like kinase 1 (Homo sapiens) (UniProt O60285); details: Compound concentration 1000.0 nM
[37] = target: Ephrin type-A receptor 7 (Homo sapiens) (UniProt Q15375); details: Compound concentration 1000.0 nM
[38] = target: Serine/threonine-protein kinase DCLK2 (Homo sapiens) (UniProt Q8N568); details: Compound concentration 1000.0 nM
[39] = target: Cyclin-dependent kinase 18 (Homo sapiens) (UniProt Q07002); details: Compound concentration 1000.0 nM
[40] = target: Tyrosine-protein kinase JAK3 (Homo sapiens) (UniProt P52333); details: Compound concentration 1000.0 nM
[41] = target: Calcium/calmodulin-dependent protein kinase type II subunit beta (Homo sapiens) (UniProt Q13554); details: Compound concentration 1000.0 nM
[42] = target: Ribosomal protein S6 kinase alpha-3 (Homo sapiens) (UniProt P51812); details: Compound concentration 1000.0 nM
[43] = target: Ephrin type-A receptor 6 (Homo sapiens) (UniProt Q9UF33); details: Compound concentration 1000.0 nM
[44] = target: Cyclin-dependent kinase 16 (Homo sapiens) (UniProt Q00536); details: Compound concentration 1000.0 nM

Chain of Transient receptor potential cation channel subfamily M member 6 (Homo sapiens) (Q9BX84 whole entry): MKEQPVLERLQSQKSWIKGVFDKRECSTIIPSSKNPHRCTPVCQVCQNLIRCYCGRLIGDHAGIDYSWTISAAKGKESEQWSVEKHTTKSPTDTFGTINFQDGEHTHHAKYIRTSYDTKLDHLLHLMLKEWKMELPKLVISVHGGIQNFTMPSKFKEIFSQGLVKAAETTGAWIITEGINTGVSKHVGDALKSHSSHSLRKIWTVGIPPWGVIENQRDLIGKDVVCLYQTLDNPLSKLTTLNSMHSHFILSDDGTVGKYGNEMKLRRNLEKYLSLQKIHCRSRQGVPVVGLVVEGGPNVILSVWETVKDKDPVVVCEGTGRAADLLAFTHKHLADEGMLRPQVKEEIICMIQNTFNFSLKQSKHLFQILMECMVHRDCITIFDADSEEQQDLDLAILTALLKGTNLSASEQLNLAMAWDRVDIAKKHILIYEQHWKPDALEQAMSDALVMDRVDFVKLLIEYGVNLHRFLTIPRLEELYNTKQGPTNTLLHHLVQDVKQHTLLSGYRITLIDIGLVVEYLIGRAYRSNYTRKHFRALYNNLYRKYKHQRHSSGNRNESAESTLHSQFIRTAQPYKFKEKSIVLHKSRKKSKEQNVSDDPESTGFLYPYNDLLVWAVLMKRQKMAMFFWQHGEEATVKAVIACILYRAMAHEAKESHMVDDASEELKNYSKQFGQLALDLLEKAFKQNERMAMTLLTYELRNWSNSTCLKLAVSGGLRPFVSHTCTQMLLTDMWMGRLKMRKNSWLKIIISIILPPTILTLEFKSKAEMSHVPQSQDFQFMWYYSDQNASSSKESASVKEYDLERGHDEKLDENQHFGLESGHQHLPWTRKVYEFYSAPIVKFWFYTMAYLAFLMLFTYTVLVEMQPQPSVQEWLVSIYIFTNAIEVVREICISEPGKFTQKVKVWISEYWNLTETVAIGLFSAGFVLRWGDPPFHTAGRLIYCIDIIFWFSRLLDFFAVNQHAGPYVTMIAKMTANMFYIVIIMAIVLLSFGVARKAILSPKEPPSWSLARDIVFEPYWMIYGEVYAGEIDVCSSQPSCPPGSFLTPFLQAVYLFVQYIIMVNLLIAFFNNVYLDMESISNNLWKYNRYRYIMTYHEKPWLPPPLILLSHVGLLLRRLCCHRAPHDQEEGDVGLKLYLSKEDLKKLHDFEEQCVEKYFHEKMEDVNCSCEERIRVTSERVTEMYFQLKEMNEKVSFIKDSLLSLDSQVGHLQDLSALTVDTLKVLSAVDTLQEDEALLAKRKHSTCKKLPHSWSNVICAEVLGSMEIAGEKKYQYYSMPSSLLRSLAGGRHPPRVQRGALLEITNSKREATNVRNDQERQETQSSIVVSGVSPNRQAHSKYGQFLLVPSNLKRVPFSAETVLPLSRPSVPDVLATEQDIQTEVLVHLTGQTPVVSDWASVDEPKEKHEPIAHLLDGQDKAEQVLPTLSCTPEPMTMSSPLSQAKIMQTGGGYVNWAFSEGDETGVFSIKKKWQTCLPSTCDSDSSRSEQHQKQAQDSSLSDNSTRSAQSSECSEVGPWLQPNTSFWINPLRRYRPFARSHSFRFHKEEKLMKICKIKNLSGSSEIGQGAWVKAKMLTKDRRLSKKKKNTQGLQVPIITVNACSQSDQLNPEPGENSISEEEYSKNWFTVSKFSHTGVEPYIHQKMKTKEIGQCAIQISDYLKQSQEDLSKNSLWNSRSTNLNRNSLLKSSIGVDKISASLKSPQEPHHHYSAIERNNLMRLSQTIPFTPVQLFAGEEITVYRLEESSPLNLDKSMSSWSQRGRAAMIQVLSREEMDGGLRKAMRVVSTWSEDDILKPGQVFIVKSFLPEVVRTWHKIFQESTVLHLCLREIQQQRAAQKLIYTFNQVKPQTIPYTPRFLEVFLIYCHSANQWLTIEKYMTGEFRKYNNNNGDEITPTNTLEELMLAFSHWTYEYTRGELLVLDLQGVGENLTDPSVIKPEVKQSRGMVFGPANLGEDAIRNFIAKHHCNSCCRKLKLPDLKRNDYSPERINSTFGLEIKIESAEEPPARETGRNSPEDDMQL
Chain of Vasopressin V1a receptor (Homo sapiens) (P37288 whole entry, looked up): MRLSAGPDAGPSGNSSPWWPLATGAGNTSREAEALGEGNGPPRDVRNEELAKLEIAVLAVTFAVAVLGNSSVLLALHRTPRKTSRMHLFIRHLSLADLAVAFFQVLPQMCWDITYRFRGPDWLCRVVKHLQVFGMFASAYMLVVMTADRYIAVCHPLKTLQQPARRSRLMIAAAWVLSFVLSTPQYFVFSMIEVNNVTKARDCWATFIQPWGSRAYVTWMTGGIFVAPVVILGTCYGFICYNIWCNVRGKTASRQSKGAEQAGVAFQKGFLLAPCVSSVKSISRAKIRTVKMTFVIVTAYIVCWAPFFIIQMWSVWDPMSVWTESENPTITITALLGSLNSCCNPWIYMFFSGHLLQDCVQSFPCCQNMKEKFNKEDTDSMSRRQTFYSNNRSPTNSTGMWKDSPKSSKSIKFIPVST
Chain of Microtubule-associated serine/threonine-protein kinase 1 (Homo sapiens) (Q9Y2H9 whole entry, looked up): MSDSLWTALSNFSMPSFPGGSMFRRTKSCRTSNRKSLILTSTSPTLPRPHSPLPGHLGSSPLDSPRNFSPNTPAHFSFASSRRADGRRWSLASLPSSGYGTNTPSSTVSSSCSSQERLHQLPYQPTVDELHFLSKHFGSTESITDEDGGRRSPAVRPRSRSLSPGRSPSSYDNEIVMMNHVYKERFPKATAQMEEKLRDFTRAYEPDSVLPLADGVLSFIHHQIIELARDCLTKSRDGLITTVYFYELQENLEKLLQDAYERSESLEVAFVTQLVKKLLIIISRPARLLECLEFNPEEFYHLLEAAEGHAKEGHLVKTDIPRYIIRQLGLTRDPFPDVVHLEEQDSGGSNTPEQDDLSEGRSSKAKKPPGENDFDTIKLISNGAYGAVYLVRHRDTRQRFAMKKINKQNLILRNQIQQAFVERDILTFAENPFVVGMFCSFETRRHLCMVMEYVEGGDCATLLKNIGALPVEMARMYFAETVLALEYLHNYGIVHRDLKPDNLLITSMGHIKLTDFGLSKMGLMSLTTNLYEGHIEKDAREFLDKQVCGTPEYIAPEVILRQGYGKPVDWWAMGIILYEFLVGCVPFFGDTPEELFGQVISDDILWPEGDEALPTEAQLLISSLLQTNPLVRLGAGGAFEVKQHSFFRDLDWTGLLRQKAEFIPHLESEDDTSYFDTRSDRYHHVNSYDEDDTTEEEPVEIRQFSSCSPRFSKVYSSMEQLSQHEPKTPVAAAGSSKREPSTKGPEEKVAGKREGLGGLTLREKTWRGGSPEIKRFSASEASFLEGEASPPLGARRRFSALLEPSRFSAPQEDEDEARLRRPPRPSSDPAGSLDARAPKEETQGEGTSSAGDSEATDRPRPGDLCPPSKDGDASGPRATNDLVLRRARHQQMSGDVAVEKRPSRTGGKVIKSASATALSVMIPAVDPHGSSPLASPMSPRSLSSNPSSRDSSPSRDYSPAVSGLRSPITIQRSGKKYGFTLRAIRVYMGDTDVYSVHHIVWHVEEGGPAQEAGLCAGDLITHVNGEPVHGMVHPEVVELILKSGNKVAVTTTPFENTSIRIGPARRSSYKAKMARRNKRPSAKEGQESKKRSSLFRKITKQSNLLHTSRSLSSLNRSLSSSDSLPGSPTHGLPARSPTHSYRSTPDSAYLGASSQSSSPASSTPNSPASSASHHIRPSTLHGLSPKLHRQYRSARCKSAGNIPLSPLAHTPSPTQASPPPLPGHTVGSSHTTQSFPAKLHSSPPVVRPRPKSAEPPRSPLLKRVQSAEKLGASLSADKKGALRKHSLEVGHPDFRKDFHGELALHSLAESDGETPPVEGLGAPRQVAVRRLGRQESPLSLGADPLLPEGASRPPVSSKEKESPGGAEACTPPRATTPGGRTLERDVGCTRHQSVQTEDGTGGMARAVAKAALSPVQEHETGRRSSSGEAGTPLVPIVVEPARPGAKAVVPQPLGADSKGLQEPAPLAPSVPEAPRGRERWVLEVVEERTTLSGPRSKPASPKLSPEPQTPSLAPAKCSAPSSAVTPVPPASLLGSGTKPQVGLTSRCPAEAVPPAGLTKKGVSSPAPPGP
Chain of Serine/threonine-protein kinase OSR1 (Homo sapiens) (O95747 2-527 limits assumed): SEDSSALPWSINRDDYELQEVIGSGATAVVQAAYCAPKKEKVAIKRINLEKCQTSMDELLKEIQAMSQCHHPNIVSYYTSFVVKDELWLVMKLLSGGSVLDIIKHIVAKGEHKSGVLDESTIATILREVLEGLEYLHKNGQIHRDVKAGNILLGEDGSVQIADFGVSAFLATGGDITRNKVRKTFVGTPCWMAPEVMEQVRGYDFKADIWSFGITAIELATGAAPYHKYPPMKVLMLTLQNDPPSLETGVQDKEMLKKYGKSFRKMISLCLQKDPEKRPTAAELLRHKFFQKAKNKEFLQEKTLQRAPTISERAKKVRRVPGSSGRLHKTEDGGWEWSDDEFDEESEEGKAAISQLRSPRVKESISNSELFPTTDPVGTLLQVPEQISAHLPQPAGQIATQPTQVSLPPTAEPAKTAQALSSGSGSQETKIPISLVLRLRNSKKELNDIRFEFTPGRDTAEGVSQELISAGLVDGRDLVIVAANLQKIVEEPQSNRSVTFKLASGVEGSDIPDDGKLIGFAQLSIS
Chain of Serine/threonine-protein kinase PAK 2 (Homo sapiens) (Q13177 whole entry): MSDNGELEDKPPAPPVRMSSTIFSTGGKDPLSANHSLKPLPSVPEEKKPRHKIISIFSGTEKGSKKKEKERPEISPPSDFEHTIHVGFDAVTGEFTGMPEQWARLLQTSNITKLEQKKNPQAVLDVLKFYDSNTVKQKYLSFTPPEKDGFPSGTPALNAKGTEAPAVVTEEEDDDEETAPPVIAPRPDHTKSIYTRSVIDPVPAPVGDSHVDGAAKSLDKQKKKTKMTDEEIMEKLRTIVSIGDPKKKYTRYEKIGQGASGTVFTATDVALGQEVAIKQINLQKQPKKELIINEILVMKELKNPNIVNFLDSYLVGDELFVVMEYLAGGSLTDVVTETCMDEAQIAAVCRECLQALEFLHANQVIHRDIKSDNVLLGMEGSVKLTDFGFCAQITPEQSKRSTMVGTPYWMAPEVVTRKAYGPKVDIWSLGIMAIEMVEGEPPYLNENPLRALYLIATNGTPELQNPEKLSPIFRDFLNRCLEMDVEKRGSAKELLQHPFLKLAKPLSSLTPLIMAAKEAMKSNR

CCCOc1ccc([C@@H]2[C@@H](C(=O)O)[C@H](c3ccc4c(c3)OCO4)CN2CC(=O)Nc2c(CC)cccc2CC)cc1 [A-1806262]
residual activity [1]: 100% | residual activity [2]: 88% | residual activity [3]: 89% | residual activity [4]: 93% | residual activity [5]: 88% | residual activity [6]: 100% | residual activity [7]: 100% | residual activity [8]: 100% | % Inhibition of Control Specific Binding (Mean n=2) [9]: -5.6% | % Inhibition of Control Specific Binding (Mean n=2) [10]: 0.4% | residual activity [11]: 99% | residual activity [12]: 100% | % Inhibition of Control Specific Binding (Mean n=2) [13]: 32.2% | residual activity [14]: 100% | % Inhibition of Control Specific Binding (Mean n=2) [15]: 15% | residual activity [16]: 100% | residual activity [17]: 78% | residual activity [18]: 99% | residual activity [19]: 88% | residual activity [20]: 100% | inhibition at 90 min, 10 µM [21]: 27.2% | residual activity [22]: 100% | residual activity [23]: 79% | residual activity [24]: 84% | residual activity [25]: 74% | residual activity [26]: 100% | residual activity [27]: 93% | residual activity [28]: 100% | residual activity [29]: 100% | residual activity [30]: 77% | residual activity [31]: 100% | residual activity [32]: 87% | residual activity [33]: 98% | residual activity [34]: 97% | residual activity [35]: 64% | residual activity [36]: 99% | residual activity [37]: 92% | residual activity [38]: 85% | residual activity [39]: 100% | residual activity [40]: 73% | residual activity [41]: 88% | residual activity [42]: 76% | residual activity [43]: 98% | residual activity [44]: 89%

CCCOc1ccc([C@H]2[C@H](C(=O)O)[C@@H](c3ccc4c(c3)OCO4)CN2CC(=O)Nc2c(CC)cccc2CC)cc1 [A-192621]
residual activity [1]: 93% | residual activity [2]: 93% | residual activity [3]: 100% | residual activity [4]: 87% | residual activity [5]: 93% | residual activity [6]: 100% | residual activity [7]: 52% | residual activity [8]: 73% | % Inhibition of Control Specific Binding (Mean n=2) [9]: -9.3% | % Inhibition of Control Specific Binding (Mean n=2) [10]: 1.9% | residual activity [11]: 86% | residual activity [12]: 100% | % Inhibition of Control Specific Binding (Mean n=2) [13]: 36.7% | residual activity [14]: 93% | % Inhibition of Control Specific Binding (Mean n=2) [15]: 7.4% | residual activity [16]: 100% | residual activity [17]: 68% | residual activity [18]: 86% | residual activity [19]: 58% | residual activity [20]: 100% | inhibition at 90 min, 10 µM [21]: 30.3% | residual activity [22]: 100% | residual activity [23]: 75% | residual activity [24]: 79% | residual activity [25]: 51% | residual activity [26]: 100% | residual activity [27]: 82% | residual activity [28]: 94% | residual activity [29]: 100% | residual activity [30]: 94% | residual activity [31]: 100% | residual activity [32]: 88% | residual activity [33]: 95% | residual activity [34]: 84% | residual activity [35]: 100% | residual activity [36]: 83% | residual activity [37]: 98% | residual activity [38]: 77% | residual activity [39]: 100% | residual activity [40]: 84% | residual activity [41]: 99% | residual activity [42]: 73% | residual activity [43]: 100% | residual activity [44]: 77%
